Assay results: patent US12622965B2, “Therapeutical tools and methods using temperature-sensitive receptors for treating blindness” (FRIEDRICH MIESCHER INSTITUTE FOR BIOMEDICAL RESEARCH, priority 2020, dated 2026)

System: rd1 cones
Test: two-photon calcium imaging of cone cell bodies and axon terminals in wholemount rd1 retinas
Format: cell-based, mouse
Description: To measure if NIR light drives responses in cones, the inventors performed two-photon calcium imaging of individual cone cell bodies and axon terminals in wholemount rd1 retinas in three conditions: first, rTRPV1 with 915 nm nanorods, second, rTRPV without nanorods and third, 915 nm nanorods without rTRPV1. To detect calcium signals, the inventors genetically targeted the calcium indicator GCaMP6s to cones via AAV that expresses GCaMP6s under a cone-specific promoter (ProA7). GCaMP6s was expressed in 67±5.1% of rd1 cones (n=12,813 cones mm−2, n=8635 GCaMP6s positive cones mm−2, mean±s.d).
Near-infrared (NIR) pulses were produced by two custom-made, single wavelength NIR diode lasers emitting at 915 nm or 980 nm, modelled after J. Yao, B. Liu, and F. Qin. […] Total laser power output, as a function of driving voltage, was measured by placing cannula (CFM14L20) and patch cable (M37L02) output at the entrance of an integrating sphere photodiode power sensor (Thorlabs, S142C) with a PM100D read-out unit. Oscilloscope read-out of laser response time was obtained by applying a step control voltage to the lasers. […]
For two-photon calcium imaging of mouse cone photoreceptors, wild-type and rd1 retinas were isolated in oxygenated Ringer's medium. […] Fluorescence was analyzed semi-online via custom-made software written in Python by Z. Raics (A. Drinnenberg et al. Neuron 99, 117-134 e111 (2018)). […]

**Q.** With “TRPV1.465-6x-His: rat TRPV1 channel with 6x-His epitope tag inserted in the first extracellular loop after amino acid 465; delivered by AAV” as the substance, how does the “reaction of rTRPV1 expressing cones to light without nanorods” value read?
**A.** did not react to light
